Data: patent publication US20230265151A1, “GIP/GLP1 CO-AGONIST COMPOUNDS” (priority 2020, published 2023)
Read-outs that look alike come from different tables or passages of the source.

Legend:
Format in all cases: cell-based
hGLP-1R = hGLP-1R (Homo sapiens, UniProt P43220); experiment: Functional cAMP formation (HTRF) in HEK-293 clonal cells expressing hGLP-1R, 0.1% bovine casein, without or with 1.0% human serum albumin; design: expressed in transfected cells; conditions: for EC50: geometric mean
hGLP-1R, sequence (P43220 24-463): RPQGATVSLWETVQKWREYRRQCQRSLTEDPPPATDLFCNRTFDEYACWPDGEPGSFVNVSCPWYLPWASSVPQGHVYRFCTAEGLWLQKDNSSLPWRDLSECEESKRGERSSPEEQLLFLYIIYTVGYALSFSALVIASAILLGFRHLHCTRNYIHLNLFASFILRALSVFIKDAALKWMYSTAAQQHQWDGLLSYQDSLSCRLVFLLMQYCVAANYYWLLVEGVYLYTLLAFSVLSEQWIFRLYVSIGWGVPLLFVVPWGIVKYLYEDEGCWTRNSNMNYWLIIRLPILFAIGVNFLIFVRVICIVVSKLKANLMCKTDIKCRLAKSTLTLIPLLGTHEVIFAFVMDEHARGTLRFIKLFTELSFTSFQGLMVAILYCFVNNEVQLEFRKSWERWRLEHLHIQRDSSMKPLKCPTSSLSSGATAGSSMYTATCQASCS
Outline: (§1)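 Readings of the HTRF 665/620 nm ratio, which falls as cAMP rises, were converted to nM cAMP using a standard curve after 30 min peptide exposure at 37° C.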

hGIPR = target: T1, hGIPR (Homo sapiens, UniProt P48546); experiment: Functional cAMP formation (HTRF) in HEK-293 clonal cells expressing hGIPR, 0.1% bovine casein, without or with 1.0% human serum albumin
T1 construct: expressed in transfected cells
T1 sequence (P48546 22-466): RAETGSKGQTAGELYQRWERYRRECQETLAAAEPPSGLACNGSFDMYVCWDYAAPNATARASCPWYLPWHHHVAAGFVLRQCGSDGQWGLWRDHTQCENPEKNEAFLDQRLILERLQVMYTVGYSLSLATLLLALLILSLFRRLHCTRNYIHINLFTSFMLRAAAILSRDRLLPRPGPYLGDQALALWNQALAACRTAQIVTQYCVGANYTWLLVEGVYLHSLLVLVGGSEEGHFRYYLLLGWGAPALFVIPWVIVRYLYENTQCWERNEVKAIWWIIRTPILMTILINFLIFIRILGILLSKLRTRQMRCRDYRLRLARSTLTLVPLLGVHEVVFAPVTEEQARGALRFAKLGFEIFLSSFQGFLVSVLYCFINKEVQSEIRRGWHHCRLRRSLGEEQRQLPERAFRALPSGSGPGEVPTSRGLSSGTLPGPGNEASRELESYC
Outline: as §1

hGCGR = target: T2, hGCGR (Homo sapiens, UniProt P47871); experiment: Functional cAMP formation (HTRF) in HEK-293 clonal cells expressing hGCGR, 0.1% bovine casein, without or with 1.0% human serum albumin
T2 construct: expressed in transfected cells
T2 sequence (P47871 26-477): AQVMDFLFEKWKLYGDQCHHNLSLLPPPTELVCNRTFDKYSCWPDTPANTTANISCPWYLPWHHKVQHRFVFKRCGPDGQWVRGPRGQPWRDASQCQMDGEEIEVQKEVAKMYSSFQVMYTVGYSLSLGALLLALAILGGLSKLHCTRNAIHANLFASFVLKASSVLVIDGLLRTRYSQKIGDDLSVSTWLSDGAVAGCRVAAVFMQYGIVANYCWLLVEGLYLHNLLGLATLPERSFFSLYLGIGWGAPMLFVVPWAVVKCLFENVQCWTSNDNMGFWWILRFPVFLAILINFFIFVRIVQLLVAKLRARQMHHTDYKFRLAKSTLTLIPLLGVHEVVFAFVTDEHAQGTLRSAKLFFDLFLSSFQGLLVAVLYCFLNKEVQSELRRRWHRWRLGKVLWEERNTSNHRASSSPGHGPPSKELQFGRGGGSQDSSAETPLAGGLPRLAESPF
Outline: as §1

[1] = HEK293, 0.1% bovine casein and 1.0% human serum albumin, 37° C., percent of maximal response to GLP-1(7-36)NH2, read-out: hGLP-1R Emax, % ± SEM
[2] = cAMP, incubated at 37° C., 0.1% bovine casein (no human serum albumin), read-out: hGLP-1R EC50, nM (SEM, n)
[3] = HEK293, 0.1% bovine casein and 1.0% human serum albumin, 37° C., percent of maximal response to GIP(1-42)NH2, read-out: hGIPR Emax, % ± SEM
[4] = HEK293, percent of maximal response to GIP(1-42)NH2, 37° C., 0.1% bovine casein, arithmetic mean, read-out: hGIPR Emax, % ± SEM
[5] = 0.1% bovine casein and 1.0% human serum albumin, 37° C., geometric mean, read-out: hGCGR EC50, nM (SEM, n)
[6] = cAMP, incubated at 37° C., 0.1% bovine casein (no human serum albumin), geometric mean, read-out: hGCGR EC50, nM (SEM, n)

CC[C@H](C)[C@H](NC(=O)[C@H](CCCN)NC(=O)[C@H](CC(=O)O)NC(=O)[C@H](CC(C)C)NC(=O)[C@](C)(CC(C)C)NC(=O)[C@@H](NC(=O)[C@H](CO)NC(=O)[C@H](Cc1ccncc1)NC(=O)[C@H](CC(=O)O)NC(=O)[C@H](CO)NC(=O)[C@@H](NC(=O)[C@](C)(Cc1ccccc1F)NC(=O)[C@@H](NC(=O)CNC(=O)[C@H](CCC(=O)O)NC(=O)C(C)(C)NC(=O)[C@@H](N)Cc1ccc(O)cc1)[C@@H](C)O)[C@@H](C)O)[C@@H](C)CC)C(=O)N[C@@H](C)C(=O)N[C@@H](CCC(N)=O)C(=O)NC(C)(C)C(=O)N[C@@H](CCCCNC(=O)COCCOCCNC(=O)COCCOCCNC(=O)CC[C@H](NC(=O)CCCCCCCCCCCCC(=O)O)C(=O)O)C(=O)N[C@@H](Cc1ccccc1)C(=O)N[C@H](C(=O)N[C@H](CCC(=O)O)C(=O)N[C@@](C)(Cc1ccc(O)cc1)C(=O)N[C@@H](CC(C)C)C(=O)N[C@H](C(=O)N[C@@H](CCC(=O)O)C(=O)NCC(=O)NCC(=O)N1CCC[C@H]1C(=O)N[C@@H](CO)C(=O)N[C@@H](CO)C(=O)NCC(=O)N[C@@H](C)C(=O)N1CCC[C@H]1C(=O)N1CCC[C@H]1C(=O)N1CCC[C@H]1C(=O)N[C@@H](CO)C(=O)N[C@@H](CCCCNC(=O)COCCOCCNC(=O)COCCOCCNC(=O)CC[C@H](NC(=O)CCCCCCCCCCCCC(=O)O)C(=O)O)C(N)=O)[C@@H](C)CC)[C@@H](C)CC [Example 75]
EC50 (hGLP-1R; 0.1% bovine casein and 1.0% human serum albumin, 37° C., read-out: hGLP-1R EC50, nM (SEM, n)): 41.3 nM
Emax (hGLP-1R; [1]): 97 ± 8.3%
EC50 (hGLP-1R; [2]): 0.411 nM
EC50 (hGIPR; 0.1% bovine casein and 1.0% human serum albumin, 37° C., geometric mean, read-out: hGIPR EC50, nM (SEM, n)): 2.18 nM
Emax (hGIPR; [3]): 87.8 ± 3.33%
Emax (hGIPR; [4]): 92.3 ± 0.78%
EC50 (hGIPR; cAMP, incubated at 37° C., 0.1% bovine casein (no human serum albumin), geometric mean, read-out: hGIPR EC50, nM (SEM, n)): 0.0182 nM
EC50 (hGCGR; [5]): > 9950 nM
EC50 (hGCGR; [6]): > 9950 nM

CC[C@H](C)[C@H](NC(=O)[C@H](CC(C)C)NC(=O)[C@](C)(Cc1ccc(O)cc1)NC(=O)[C@@H](CCC(=O)O)NC(=O)[C@@H](NC(=O)[C@H](Cc1ccccc1)NC(=O)[C@H](CCC(=O)O)NC(=O)C(C)(C)NC(=O)[C@H](CCC(N)=O)NC(=O)[C@H](C)NC(=O)[C@H](CCCCNC(=O)COCCOCCNC(=O)COCCOCCNC(=O)CCCCCCCCCOc1ccc(C(=O)O)cc1)NC(=O)[C@H](CCCN)NC(=O)[C@H](CC(=O)O)NC(=O)[C@H](CC(C)C)NC(=O)[C@](C)(CC(C)C)NC(=O)[C@@H](NC(=O)C(C)(C)NC(=O)[C@H](Cc1ccc(O)cc1)NC(=O)[C@H](CC(=O)O)NC(=O)[C@H](CO)NC(=O)[C@@H](NC(=O)[C@](C)(Cc1ccccc1F)NC(=O)[C@@H](NC(=O)CNC(=O)[C@H](CCC(=O)O)NC(=O)C(C)(C)NC(=O)[C@@H](N)Cc1ccc(O)cc1)[C@@H](C)O)[C@@H](C)O)[C@@H](C)CC)[C@@H](C)CC)C(=O)N[C@@H](CCCCNC(=O)COCCOCCNC(=O)COCCOCCNC(=O)CCCCCCCCCOc1ccc(C(=O)O)cc1)C(=O)NCC(=O)NCC(=O)N1CCC[C@H]1C(=O)N[C@@H](CO)C(=O)N[C@@H](CO)C(=O)NCC(=O)N[C@@H](C)C(=O)N1CCC[C@H]1C(=O)N1CCC[C@H]1C(=O)N1CCC[C@H]1C(=O)N[C@@H](CO)C(N)=O [Example 396]
Emax (hGLP-1R; HEK293, read-out: hGLP-1R Emax, % ± SEM, cAMP, 37° C., 0.1% bovine casein and 1.0% human serum albumin, percent of maximal response to GLP-1(7-36)NH2): 94.4%
EC50 (hGLP-1R; hGLP-1R EC50, nM (SEM, n), cAMP, 37° C., 0.1% bovine casein (no human serum albumin)): 0.291 nM
Emax (hGIPR; HEK293, read-out: hGIPR Emax, % ± SEM, cAMP, 37° C., 0.1% bovine casein and 1.0% human serum albumin, percent of maximal response to GIP(1-42)NH2): 67.1%
Emax (hGIPR; HEK293, read-out: hGIPR Emax, % ± SEM, cAMP, 37° C., 0.1% bovine casein, percent of maximal response to GIP(1-42)NH2, arithmetic mean): 96.2%
EC50 (hGIPR; hGIPR EC50, nM (SEM, n), cAMP, 37° C., 0.1% bovine casein (no human serum albumin), geometric mean): 0.0113 nM
EC50 (hGIPR; hGIPR EC50, nM (SEM, n), cAMP, 37° C., 0.1% bovine casein and 1.0% human serum albumin, geometric mean (SEM, n)): 0.595 nM
EC50 (hGCGR; hGCGR EC50, nM (SEM, n), cAMP, 37° C., 0.1% bovine casein (no human serum albumin), geometric mean): > 9950 nM
EC50 (hGCGR; hGCGR EC50, nM (SEM, n), cAMP, 37° C., 0.1% bovine casein and 1.0% human serum albumin, geometric mean (SEM, n)): > 9950 nM

CCCCCCCCCCCC(=O)N[C@@H](CCC(=O)NCCOCCOCC(=O)NCCOCCOCC(=O)NCCCC[C@H](NC(=O)[C@H](CCCN)NC(=O)[C@H](CC(=O)O)NC(=O)[C@H](CC(C)C)NC(=O)[C@](C)(CC(C)C)NC(=O)[C@@H](NC(=O)[C@H](CO)NC(=O)[C@H](Cc1ccc(OC)cc1)NC(=O)[C@H](CC(=O)O)NC(=O)[C@H](CO)NC(=O)[C@@H](NC(=O)[C@](C)(Cc1ccccc1F)NC(=O)[C@@H](NC(=O)CNC(=O)[C@H](CCC(=O)O)NC(=O)C(C)(C)NC(=O)[C@@H](N)Cc1ccc(O)cc1)[C@@H](C)O)[C@@H](C)O)[C@@H](C)CC)C(=O)N[C@@H](C)C(=O)N[C@@H](CCC(N)=O)C(=O)NC(C)(C)C(=O)N[C@@H](CCCCNC(=O)COCCOCCNC(=O)COCCOCCNC(=O)CC[C@H](NC(=O)CCCCCCCCCCC)C(=O)O)C(=O)N[C@@H](Cc1ccccc1)C(=O)N[C@H](C(=O)N[C@H](CCC(=O)O)C(=O)N[C@@](C)(Cc1ccc(O)cc1)C(=O)N[C@@H](CC(C)C)C(=O)N[C@H](C(=O)N[C@@H](CCC(=O)O)C(=O)NCC(=O)NCC(=O)N1CCC[C@H]1C(=O)N[C@@H](CO)C(=O)N[C@@H](CO)C(=O)NCC(=O)N[C@@H](C)C(=O)N1CCC[C@H]1C(=O)N1CCC[C@H]1C(=O)N1CCC[C@H]1C(=O)N[C@@H](CO)C(N)=O)[C@@H](C)CC)[C@@H](C)CC)C(=O)O [Example 289]
Emax (hGLP-1R; [1]): 170%
Emax (hGLP-1R; HEK293, cAMP, 37° C., 0.1% bovine casein, percent of maximal response to GLP-1(7-36)NH2, arithmetic mean, read-out: hGLP-1R Emax, % ± SEM): 96.7%
Emax (hGIPR; [3]): 94.9%
Emax (hGIPR; HEK293, cAMP, 37° C., 0.1% bovine casein, percent of maximal response to GIP(1-42)NH2, arithmetic mean, read-out: hGIPR Emax, % ± SEM): 111%
EC50 (hGIPR; cAMP, 37° C., 0.1% bovine casein (no human serum albumin), geometric mean, read-out: hGIPR EC50, nM (SEM, n)): 0.017 nM
EC50 (hGCGR; [5]): > 9950 nM
EC50 (hGCGR; cAMP, 37° C., 0.1% bovine casein (no human serum albumin), geometric mean, read-out: hGCGR EC50, nM (SEM, n)): > 9950 nM

CC[C@H](C)[C@H](NC(=O)[C@H](CC(C)C)NC(=O)[C@](C)(Cc1ccc(O)cc1)NC(=O)[C@@H](CCC(=O)O)NC(=O)[C@@H](NC(=O)[C@H](Cc1ccccc1)NC(=O)[C@H](CCC(=O)O)NC(=O)C(C)(C)NC(=O)[C@H](CCC(N)=O)NC(=O)[C@H](C)NC(=O)[C@H](CCCCNC(=O)[C@@H](N)CCCCNC(=O)[C@@H](N)CCCCNC(=O)CC[C@H](NC(=O)CCCCCCCCCCCCC(=O)O)C(=O)O)NC(=O)[C@H](CCCN)NC(=O)[C@H](CC(=O)O)NC(=O)[C@H](CC(C)C)NC(=O)[C@](C)(CC(C)C)NC(=O)[C@@H](NC(=O)C(C)(C)NC(=O)[C@@H](NC(=O)[C@H](CC(=O)O)NC(=O)[C@H](CO)NC(=O)[C@@H](NC(=O)[C@](C)(Cc1ccccc1F)NC(=O)[C@@H](NC(=O)CNC(=O)[C@H](CCC(=O)O)NC(=O)C(C)(C)NC(=O)[C@@H](N)Cc1ccc(O)cc1)[C@@H](C)O)[C@@H](C)O)C(C)C)[C@@H](C)CC)[C@@H](C)CC)C(=O)N[C@@H](CCC(=O)O)C(=O)NCC(=O)NCC(=O)N[C@@H](CCCCNC(=O)[C@@H](N)CCCCNC(=O)[C@@H](N)CCCCNC(=O)CC[C@H](NC(=O)CCCCCCCCCCCCC(=O)O)C(=O)O)C(=O)N[C@@H](CO)C(=O)N[C@@H](CO)C(=O)NCC(=O)N[C@@H](C)C(=O)N1CCC[C@H]1C(=O)N1CCC[C@H]1C(=O)N1CCC[C@H]1C(=O)N[C@@H](CO)C(N)=O [Example 165]
Emax (hGLP-1R; HEK293, percent of maximal response to GLP-1(7-36)NH2, 37° C., 0.1% bovine casein, arithmetic mean, read-out: hGLP-1R Emax, % ± SEM): 94.3%
EC50 (hGLP-1R; [2]): 0.291 nM
Emax (hGIPR; [4]): 96.1%
EC50 (hGCGR; [6]): > 9950 nM
